Experimental data reported in PubChem BioAssay (NCI).
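Following 48 hours of exposure in 96-well plates, responses at five concentrations were used to interpolate endpoints linearly. Definition used: TGI = concentration required for complete inhibition of growth.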

Tests used:
Assay in all cases: inhibition of tumour cell growth, NCI panel, 48 h
OVCAR-5 ovarian = tested on: OVCAR-5 ovarian
SN12C renal = tested on: SN12C renal
PC-3 prostate = tested on: PC-3 prostate
HOP-92 NSCLC = tested on: HOP-92 NSCLC
SF-295 CNS = tested on: SF-295 CNS
KM12 colon = tested on: KM12 colon
SK-MEL-5 melanoma = tested on: SK-MEL-5 melanoma
HS 578T breast = tested on: HS 578T breast
MOLT-4 leukemia = tested on: MOLT-4 leukemia
UO-31 renal = tested on: UO-31 renal
UACC-257 melanoma = tested on: UACC-257 melanoma
MDA-MB-231 breast = tested on: MDA-MB-231 breast
OVCAR-8 ovarian = tested on: OVCAR-8 ovarian
ACHN renal = tested on: ACHN renal
SK-OV-3 ovarian = tested on: SK-OV-3 ovarian
SK-MEL-2 melanoma = tested on: SK-MEL-2 melanoma
NCI-H226 lung = tested on: NCI-H226 lung
LOX IMVI melanoma = tested on: LOX IMVI melanoma
NCI-H522 lung = tested on: NCI-H522 lung
U251 CNS = tested on: U251 CNS
MDA-MB-435 = tested on: MDA-MB-435
TK-10 renal = tested on: TK-10 renal
T-47D breast = tested on: T-47D breast
786-0 renal = tested on: 786-0 renal
RXF 393 renal = tested on: RXF 393 renal
UACC-62 melanoma = tested on: UACC-62 melanoma
HT29 colon = tested on: HT29 colon
HOP-62 NSCLC = tested on: HOP-62 NSCLC
IGROV1 ovarian = tested on: IGROV1 ovarian
A549 NSCLC = tested on: A549 NSCLC
NCI/ADR-RES ovarian = tested on: NCI/ADR-RES ovarian
HCT-116 colon = tested on: HCT-116 colon
SR leukemia = tested on: SR leukemia
SF-539 CNS = tested on: SF-539 CNS
CCRF-CEM leukemia = tested on: CCRF-CEM leukemia
MALME-3M melanoma = tested on: MALME-3M melanoma
COLO 205 colon = tested on: COLO 205 colon
EKVX NSCLC = tested on: EKVX NSCLC
RPMI-8226 leukemia = tested on: RPMI-8226 leukemia
OVCAR-4 ovarian = tested on: OVCAR-4 ovarian
HCC-2998 colon = tested on: HCC-2998 colon
A498 renal = tested on: A498 renal
M14 melanoma = tested on: M14 melanoma
MDA-N = tested on: MDA-N
MCF7 breast = tested on: MCF7 breast
NCI-H23 lung = tested on: NCI-H23 lung
OVCAR-3 ovarian = tested on: OVCAR-3 ovarian
SK-MEL-28 melanoma = tested on: SK-MEL-28 melanoma
HCT-15 colon = tested on: HCT-15 colon
K-562 leukemia = tested on: K-562 leukemia
CAKI-1 renal = tested on: CAKI-1 renal
SW-620 colon = tested on: SW-620 colon
SNB-19 CNS = tested on: SNB-19 CNS
NCI-H460 lung = tested on: NCI-H460 lung
SF-268 CNS = tested on: SF-268 CNS
DU-145 prostate = tested on: DU-145 prostate
SNB-75 CNS = tested on: SNB-75 CNS
BT-549 breast = tested on: BT-549 breast
HL-60(TB) leukemia = tested on: HL-60(TB) leukemia

COC(=O)CCC(=O)c1ccc2c(c1)CC1(Cc3ccccc3C1)C2
TGI (OVCAR-5 ovarian): > 100 µM
TGI (SN12C renal): > 100 µM
TGI (PC-3 prostate): > 100 µM
TGI (HOP-92 NSCLC): > 100 µM
TGI (SF-295 CNS): > 100 µM
TGI (KM12 colon): > 100 µM
TGI (SK-MEL-5 melanoma): 33.1 µM
TGI (HS 578T breast): > 100 µM
TGI (MOLT-4 leukemia): 52.6 µM
TGI (UO-31 renal): 80.3 µM
TGI (UACC-257 melanoma): 84.2 µM
TGI (MDA-MB-231 breast): > 100 µM
TGI (OVCAR-8 ovarian): > 100 µM
TGI (ACHN renal): > 100 µM
TGI (SK-OV-3 ovarian): > 100 µM
TGI (SK-MEL-2 melanoma): > 100 µM
TGI (NCI-H226 lung): 94.9 µM
TGI (LOX IMVI melanoma): > 100 µM
TGI (NCI-H522 lung): > 100 µM
TGI (U251 CNS): > 100 µM
TGI (MDA-MB-435): > 100 µM
TGI (TK-10 renal): > 100 µM
TGI (T-47D breast): > 100 µM
TGI (786-0 renal): > 100 µM
TGI (RXF 393 renal): > 100 µM
TGI (UACC-62 melanoma): > 100 µM
TGI (HT29 colon): 43.9 µM
TGI (HOP-62 NSCLC): > 100 µM
TGI (IGROV1 ovarian): > 100 µM
TGI (A549 NSCLC): > 100 µM
TGI (NCI/ADR-RES ovarian): > 100 µM
TGI (HCT-116 colon): > 100 µM
TGI (SR leukemia): 34 µM
TGI (SF-539 CNS): > 100 µM
TGI (CCRF-CEM leukemia): 45.4 µM
TGI (MALME-3M melanoma): > 100 µM
TGI (COLO 205 colon): 82.3 µM
TGI (EKVX NSCLC): > 100 µM
TGI (RPMI-8226 leukemia): > 100 µM
TGI (OVCAR-4 ovarian): > 100 µM
TGI (HCC-2998 colon): > 100 µM
TGI (A498 renal): > 100 µM
TGI (M14 melanoma): > 100 µM
TGI (MDA-N): > 100 µM
TGI (MCF7 breast): > 100 µM
TGI (NCI-H23 lung): > 100 µM
TGI (OVCAR-3 ovarian): > 100 µM

CSc1cc(Cl)c(C)cc1S(=O)(=O)NC(=O)NNc1cnc2ccccc2n1
TGI (OVCAR-5 ovarian): > 100 µM
TGI (SN12C renal): > 100 µM
TGI (PC-3 prostate): > 100 µM
TGI (SF-295 CNS): > 100 µM
TGI (KM12 colon): > 100 µM
TGI (SK-MEL-5 melanoma): > 100 µM
TGI (SK-MEL-28 melanoma): > 100 µM
TGI (HS 578T breast): > 100 µM
TGI (MOLT-4 leukemia): 56.8 µM
TGI (HCT-15 colon): > 100 µM
TGI (MDA-MB-231 breast): > 100 µM
TGI (OVCAR-8 ovarian): > 100 µM
TGI (ACHN renal): > 100 µM
TGI (K-562 leukemia): > 100 µM
TGI (SK-OV-3 ovarian): > 100 µM
TGI (SK-MEL-2 melanoma): > 100 µM
TGI (NCI-H226 lung): > 100 µM
TGI (CAKI-1 renal): > 100 µM
TGI (LOX IMVI melanoma): > 100 µM
TGI (SW-620 colon): > 100 µM
TGI (NCI-H522 lung): > 100 µM
TGI (U251 CNS): > 100 µM
TGI (MDA-MB-435): > 100 µM
TGI (T-47D breast): > 100 µM
TGI (786-0 renal): > 100 µM
TGI (RXF 393 renal): > 100 µM
TGI (HT29 colon): > 100 µM
TGI (HOP-62 NSCLC): > 100 µM
TGI (IGROV1 ovarian): > 100 µM
TGI (A549 NSCLC): > 100 µM
TGI (NCI/ADR-RES ovarian): > 100 µM
TGI (HCT-116 colon): > 100 µM
TGI (SNB-19 CNS): > 100 µM
TGI (SR leukemia): > 100 µM
TGI (SF-539 CNS): > 100 µM
TGI (CCRF-CEM leukemia): > 100 µM
TGI (NCI-H460 lung): > 100 µM
TGI (MALME-3M melanoma): > 100 µM
TGI (COLO 205 colon): > 100 µM
TGI (SF-268 CNS): > 100 µM
TGI (EKVX NSCLC): > 100 µM
TGI (OVCAR-4 ovarian): > 100 µM
TGI (HCC-2998 colon): > 100 µM
TGI (A498 renal): > 100 µM
TGI (M14 melanoma): > 100 µM
TGI (MDA-N): > 100 µM
TGI (MCF7 breast): > 100 µM
TGI (DU-145 prostate): > 100 µM
TGI (OVCAR-3 ovarian): > 100 µM

COc1ccc(C(CC(=O)c2ccc(O)cc2)C(C(=O)c2ccc(O)cc2)C(c2ccc(OC)cc2)C2C(=O)NC(=S)NC2=O)cc1 (stereo not drawn)
TGI (OVCAR-5 ovarian): 49.6 µM
TGI (SN12C renal): 57 µM
TGI (PC-3 prostate): 59.8 µM
TGI (HOP-92 NSCLC): > 100 µM
TGI (SF-295 CNS): 52.3 µM
TGI (KM12 colon): 31.9 µM
TGI (SK-MEL-5 melanoma): 42.5 µM
TGI (SK-MEL-28 melanoma): 48.8 µM
TGI (HS 578T breast): 67.8 µM
TGI (MOLT-4 leukemia): > 100 µM
TGI (HCT-15 colon): 45.3 µM
TGI (UO-31 renal): 33.8 µM
TGI (UACC-257 melanoma): 41 µM
TGI (MDA-MB-231 breast): 55.9 µM
TGI (OVCAR-8 ovarian): 60 µM
TGI (ACHN renal): 43.6 µM
TGI (K-562 leukemia): > 100 µM
TGI (SNB-75 CNS): 87.5 µM
TGI (SK-MEL-2 melanoma): 70.8 µM
TGI (NCI-H226 lung): 40 µM
TGI (LOX IMVI melanoma): 38 µM
TGI (SW-620 colon): 55.7 µM
TGI (NCI-H522 lung): 29.9 µM
TGI (U251 CNS): 72.3 µM
TGI (MDA-MB-435): 61.2 µM
TGI (TK-10 renal): 53.7 µM
TGI (BT-549 breast): 47.9 µM
TGI (786-0 renal): 44.2 µM
TGI (UACC-62 melanoma): 36.1 µM
TGI (HT29 colon): > 100 µM
TGI (HOP-62 NSCLC): 67.1 µM
TGI (IGROV1 ovarian): 32.3 µM
TGI (A549 NSCLC): 89.9 µM
TGI (NCI/ADR-RES ovarian): > 100 µM
TGI (HCT-116 colon): 30.4 µM
TGI (SNB-19 CNS): 43.7 µM
TGI (SR leukemia): > 100 µM
TGI (HL-60(TB) leukemia): 85.6 µM
TGI (CCRF-CEM leukemia): 36 µM
TGI (NCI-H460 lung): 39.5 µM
TGI (COLO 205 colon): 45.1 µM
TGI (SF-268 CNS): 35.3 µM
TGI (RPMI-8226 leukemia): 92.4 µM
TGI (OVCAR-4 ovarian): 63.2 µM
TGI (A498 renal): > 100 µM
TGI (M14 melanoma): 39.3 µM
TGI (MDA-N): 41.5 µM
TGI (MCF7 breast): 33.2 µM
TGI (DU-145 prostate): 33.8 µM

O=C(CN1CCOCC1)c1ccc2c(c1)oc(=O)n2CCN1CCCCC1
TGI (OVCAR-5 ovarian): > 100 µM
TGI (SN12C renal): > 100 µM
TGI (PC-3 prostate): > 100 µM
TGI (SF-295 CNS): > 100 µM
TGI (KM12 colon): > 100 µM
TGI (SK-MEL-5 melanoma): > 100 µM
TGI (SK-MEL-28 melanoma): > 100 µM
TGI (HS 578T breast): > 100 µM
TGI (MOLT-4 leukemia): > 100 µM
TGI (HCT-15 colon): > 100 µM
TGI (UO-31 renal): > 100 µM
TGI (UACC-257 melanoma): > 100 µM
TGI (MDA-MB-231 breast): > 100 µM
TGI (OVCAR-8 ovarian): > 100 µM
TGI (ACHN renal): > 100 µM
TGI (K-562 leukemia): > 100 µM
TGI (SK-OV-3 ovarian): > 100 µM
TGI (SNB-75 CNS): 56.2 µM
TGI (SK-MEL-2 melanoma): > 100 µM
TGI (NCI-H226 lung): > 100 µM
TGI (CAKI-1 renal): > 100 µM
TGI (LOX IMVI melanoma): > 100 µM
TGI (SW-620 colon): > 100 µM
TGI (U251 CNS): > 100 µM
TGI (MDA-MB-435): > 100 µM
TGI (TK-10 renal): > 100 µM
TGI (BT-549 breast): > 100 µM
TGI (786-0 renal): > 100 µM
TGI (RXF 393 renal): > 100 µM
TGI (UACC-62 melanoma): > 100 µM
TGI (HT29 colon): > 100 µM
TGI (HOP-62 NSCLC): > 100 µM
TGI (IGROV1 ovarian): > 100 µM
TGI (NCI/ADR-RES ovarian): > 100 µM
TGI (HCT-116 colon): > 100 µM
TGI (SNB-19 CNS): > 100 µM
TGI (SR leukemia): > 100 µM
TGI (SF-539 CNS): > 100 µM
TGI (HL-60(TB) leukemia): > 100 µM
TGI (CCRF-CEM leukemia): > 100 µM
TGI (NCI-H460 lung): > 100 µM
TGI (MALME-3M melanoma): > 100 µM
TGI (COLO 205 colon): > 100 µM
TGI (SF-268 CNS): > 100 µM
TGI (EKVX NSCLC): > 100 µM
TGI (RPMI-8226 leukemia): > 100 µM
TGI (A498 renal): > 100 µM
TGI (M14 melanoma): > 100 µM
TGI (MDA-N): > 100 µM
TGI (MCF7 breast): > 100 µM
TGI (NCI-H23 lung): > 100 µM
TGI (DU-145 prostate): > 100 µM
TGI (OVCAR-3 ovarian): > 100 µM
